The Ki is the equilibrium dissociation constant of an inhibitor or competing ligand from its target.

The values below come from ChEMBL document CHEMBL1131321, “Pharmacophoric requirements for cannabinoid side chains: multiple bond and C1'-substituted delta 8-tetrahydrocannabinols” (J Med Chem, 1998).

One test concerns the target Cannabinoid receptor 2 (Mus musculus, UniProt P47936). The test can be described thus: The compound was evaluated for its affinity towards cannabinoid receptor 2 (CB2) in mouse spleen. The class given is tissue-based.
Another test has as its target Cannabinoid receptor 1 (Rattus norvegicus, UniProt P20272). The test can be described thus: The compound was evaluated for its affinity towards cannabinoid receptor 1 (CB1) in rat brain. The class given is tissue-based.

Chain of Cannabinoid receptor 1 (P20272 whole entry): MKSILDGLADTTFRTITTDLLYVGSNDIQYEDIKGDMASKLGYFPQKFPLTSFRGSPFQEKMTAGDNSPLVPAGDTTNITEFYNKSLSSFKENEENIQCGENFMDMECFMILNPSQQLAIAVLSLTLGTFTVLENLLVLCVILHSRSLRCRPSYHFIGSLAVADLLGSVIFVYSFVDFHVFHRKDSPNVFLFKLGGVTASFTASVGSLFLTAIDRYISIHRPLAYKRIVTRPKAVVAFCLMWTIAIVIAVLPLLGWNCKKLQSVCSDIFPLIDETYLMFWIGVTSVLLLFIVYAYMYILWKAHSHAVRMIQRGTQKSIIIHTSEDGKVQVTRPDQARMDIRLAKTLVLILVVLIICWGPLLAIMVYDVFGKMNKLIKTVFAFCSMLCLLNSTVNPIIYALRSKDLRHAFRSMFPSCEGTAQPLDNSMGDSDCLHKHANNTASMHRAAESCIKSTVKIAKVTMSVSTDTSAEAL
Chain of Cannabinoid receptor 2 (P47936 whole entry): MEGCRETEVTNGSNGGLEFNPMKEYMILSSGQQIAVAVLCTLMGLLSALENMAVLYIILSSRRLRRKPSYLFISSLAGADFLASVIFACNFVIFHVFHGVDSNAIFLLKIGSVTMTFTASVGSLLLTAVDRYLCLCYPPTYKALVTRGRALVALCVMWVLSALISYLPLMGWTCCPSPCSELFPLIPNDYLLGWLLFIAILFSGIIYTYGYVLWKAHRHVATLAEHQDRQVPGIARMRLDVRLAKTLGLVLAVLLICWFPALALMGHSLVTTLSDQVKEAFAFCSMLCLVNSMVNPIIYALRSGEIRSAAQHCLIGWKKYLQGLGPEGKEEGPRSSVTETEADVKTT

Turning to `C=C(C)[C@@H]1CCC(C)=C[C@H]1c1c(O)cc(C2(CCCCCC)SCCS2)cc1O`, the figures for the Ki on Cannabinoid receptor 2 (read-out: Ki) and on Cannabinoid receptor 1 were 0.0504 µM and 0.136 µM, respectively.

As to `CCCCCCC(O)c1cc(O)c2c(c1)OC(C)(C)[C@@H]1CC=C(C)C[C@@H]21` (stereo partly specified), the Ki came to 0.0656 µM at Cannabinoid receptor 2 (read-out: Ki) and 0.0864 µM at Cannabinoid receptor 1.

On to `CCCCCCC(=O)c1cc(O)c2c(c1)OC(C)(C)[C@@H]1CC=C(C)C[C@@H]21`, for which the figures for the Ki at Cannabinoid receptor 2 (read-out: Ki) and on Cannabinoid receptor 1 were 0.0837 µM and 0.0217 µM, respectively.

For `CCCCCCC1(c2cc(O)c3c(c2)OC(C)(C)[C@@H]2CC=C(C)C[C@@H]32)CC1`, the inhibition constant (Ki) at Cannabinoid receptor 2 (read-out: Ki) was 0.0033 µM; on Cannabinoid receptor 1 it was 0.00217 µM.

Compound `CCCCCCC1(c2cc(O)c3c(c2)OC(C)(C)[C@@H]2CC=C(C)C[C@@H]32)SCCS1` registered a Ki at Cannabinoid receptor 2 of 0.00052 µM.

Regarding `CCCCCC#Cc1cc(O)c2c(c1)OC(C)(C)[C@@H]1CC=C(C)C[C@@H]21`, the figures for the Ki at Cannabinoid receptor 2 (read-out: Ki) and on Cannabinoid receptor 1 were 0.0031 µM and 0.00065 µM, respectively.
